Source: patent US20130345204A1, “SUBSTITUTED BICYCLIC CYCLOALKYL PYRAZOLE LACTAM ANALOGS AS ALLOSTERIC MODULATORS OF MGLUR5 RECEPTORS” (Vanderbilt University, priority 2012, published 2013)
Where two headings read alike, the source gives them in different places.

Columns and labels:
human mGluR5 = human mGluR5 (Homo sapiens, UniProt P41594); experiment: Cell-based functional Ca2+ mobilization assay (FDSS), potentiation of glutamate EC20 response
From the text: Human mGluR5a cDNA in pCMV6-XL6 mammalian expression plasmid was purchased from OriGene Technologies, Inc. (catalogue number SC326357) and subcloned into pcDNA3.1(-). Human embryonic kidney (HEK)293A cells were then transfected with human mGluR5a pcDNA3.1(-) using LipofectAmine-2000 (Invitrogen) and monoclones were selected and tested for functional response using a Ca^2+ mobilization assay. Monoclones were named for the species (“H” for human) plus the location on the plate (e.g. “10H”). […] Cell-lines used were either the H10H or […] cell-lines expressing the human mGluR5 receptor. The following day, the growth medium was removed and the cells were washed with assay buffer containing 1× Hank's balanced salt solution (Invitrogen, Carlsbad, Calif.), 20 mM HEPES, 2.5 mM probenecid, pH 7.4 and left with 20 μL of this reagent. Following this step, the cells were loaded with calcium indicator dye, fluo-4 AM, to a final concentration of 2 μM and incubated for 40-45 min at 37° C. The dye solution was removed and replaced with assay buffer. Cell plates were held for 10-15 min at room temperature and were then loaded into the Functional Drug Screening System 6000 (FDSS 6000, Hamamatsu, Japan). […] Calcium fluorescence measures were recorded as fold over basal fluorescence; raw data was then normalized to the maximal response to glutamate. […] The concentration-response curves of compounds of the present invention, obtained in the presence of EC20 of mGluR5 receptor agonist glutamate to determine positive allosteric modulation, were generated using Microsoft Excel with IDBS XLfit add-ins. The raw data file containing all time points was used as the data source in the analysis template. This was saved by the FDSS as a tab-delimited text file. Data were normalized using a static ratio function (F/F0) for each measurement of the total 350 values per well divided by each well's initial value. […] This is sufficient time to capture the peak amplitude of the cellular Calcium response. […] Each of the three values collected at each concentration of test compound were weighted evenly. Individual values falling outside the 95% prediction limits of the curve fit were automatically excluded from the fit. […] These two methods are in good agreement for curves with a clear plateau at the high concentration range. […] For consistency purposes across the range of potencies observed, all EMax values reported in this application are calculated using the maximum average response at a single concentration. The % EMax value for each compound reported in this application is defined as the maximum % effect obtained in a concentration-response curve of that compound expressed as a percent of the response of a maximally effect concentration of glutamate. […] Table IV below lists specific compounds as well as experimentally determined mGluR5 activity determined in a cell-based. The mGluR5 activity was determined using the metabotropic glutamate receptor activity assays in human embryonic kidney cells as described herein, wherein the human embryonic kidney cells were transfected with human mGluR5. The data in Table III were obtained using the H10H cell-line which expresses recombinant human mGluR5. The compound number corresponds to the compound numbers used in Table I.

[1] = system: amphetamine-induced hyperlocomotion; experiment: Reversal of amphetamine-induced hyperlocomotion in rat; format: in vivo; settings: male Sprague-Dawley rats; compound p.o.; amphetamine 1 mg/kg s.c.
Procedure: The study was carried out using male Sprague-Dawley rats weighing 225 g-275 g, between 2-3 months old (Harlan, Inc., Indianapolis, Ind.). They were kept in the animal care facility certified by the American Association for the Accreditation of Laboratory Animal Care (AALAC) under a 12-hour light/dark cycle (lights on: 6 a.m.; lights off: 6 p.m.) and had free access to food and water. The experimental protocols performed during the light cycle were approved by the Institutional Animals Care and Use Committee of Vanderbilt University and conformed to the guidelines established by the National Research Council Guide for the Care and Use of Laboratory Animals.
Locomotor activity was assessed as mean distance traveled (cm) in Smart Open Field locomotor activity test chambers (Hamilton-Kinder, San Diego, Calif.) with 16×16 photobeams with chambers measuring 43.2 cm (Length)×43.2 cm (Width)×30.5 cm (Height) (Med Associates, St. Albans, Vt.). […] At 60 min, all rats were injected subcutaneously with 1 mg/kg amphetamine or vehicle and then monitored for an additional 60 min. Animals are monitored for a total of 120 minutes.
Data are expressed as the mean (±SEM) distance traveled recorded in 5 min intervals over the test period. The data was analyzed using repeated measures analysis of variance (ANOVA) followed by post-hoc testing using Dunnett's test, when appropriate. […]

[2] = H10H cell-line, maximum % effect as percent of response to maximally effective glutamate, glutamate EC20 present, read-out: Emax (%)
[3] = H10H cell-line, potentiation in presence of glutamate EC20

Sequence of human mGluR5 (P41594 21-1180 isoform P41594-2 limits assumed): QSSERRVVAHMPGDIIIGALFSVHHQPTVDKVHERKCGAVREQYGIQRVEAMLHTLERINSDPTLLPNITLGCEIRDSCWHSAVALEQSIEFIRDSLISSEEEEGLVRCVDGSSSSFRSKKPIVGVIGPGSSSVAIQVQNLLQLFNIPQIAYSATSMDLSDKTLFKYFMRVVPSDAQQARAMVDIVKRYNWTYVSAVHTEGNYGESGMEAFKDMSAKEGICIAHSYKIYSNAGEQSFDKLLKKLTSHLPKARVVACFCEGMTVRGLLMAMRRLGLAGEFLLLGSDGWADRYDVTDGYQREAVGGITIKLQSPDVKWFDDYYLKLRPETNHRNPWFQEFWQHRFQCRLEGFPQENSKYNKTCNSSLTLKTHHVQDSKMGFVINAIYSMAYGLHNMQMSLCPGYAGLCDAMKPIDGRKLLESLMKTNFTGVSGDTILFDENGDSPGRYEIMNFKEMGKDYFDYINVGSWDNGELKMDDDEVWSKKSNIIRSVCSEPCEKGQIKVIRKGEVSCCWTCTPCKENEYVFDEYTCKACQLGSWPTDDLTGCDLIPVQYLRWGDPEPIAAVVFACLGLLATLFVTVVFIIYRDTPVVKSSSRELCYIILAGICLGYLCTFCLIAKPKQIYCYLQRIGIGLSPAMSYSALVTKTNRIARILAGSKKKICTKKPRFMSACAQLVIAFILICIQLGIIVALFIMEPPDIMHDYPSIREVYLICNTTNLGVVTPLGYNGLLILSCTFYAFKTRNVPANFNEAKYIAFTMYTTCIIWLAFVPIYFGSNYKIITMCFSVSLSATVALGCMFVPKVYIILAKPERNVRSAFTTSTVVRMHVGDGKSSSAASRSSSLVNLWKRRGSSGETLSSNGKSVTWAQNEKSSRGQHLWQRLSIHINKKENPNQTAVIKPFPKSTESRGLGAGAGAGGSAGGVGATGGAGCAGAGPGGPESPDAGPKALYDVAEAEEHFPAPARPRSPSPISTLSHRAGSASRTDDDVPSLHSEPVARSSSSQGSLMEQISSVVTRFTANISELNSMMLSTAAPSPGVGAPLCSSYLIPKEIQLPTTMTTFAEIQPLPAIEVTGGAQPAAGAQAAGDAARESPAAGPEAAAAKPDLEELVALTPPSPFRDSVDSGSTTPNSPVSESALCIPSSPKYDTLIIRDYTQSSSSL

Emax (human mGluR5; [2]) [%]	EC50 (human mGluR5; [3]) [nM]	Compound	also measured
25	≥ 10000	O=C1c2cc(COc3ccccc3)nn2CCN1C1CCOC1 (racemic) [Compound 12]	–
52	≥ 10000	O=C1c2cc(COc3ccccc3)nn2CCN1C1CCCOC1 (racemic) [Compound 20]	–
58	389	O=C1c2cc(COc3ccccc3)nn2CCCN1CC1CC1(F)F (racemic) [Compound 25]	melting point: 102.2 °C
–	–	O=C1c2cc(COc3ccccc3)nn2CCN1CC1CC1(F)F (stereo in doubt) [Compound 2, (S)-5-((2,2-difluorocyclopropyl)methyl)-2-(phenoxymethyl)-6,7-dihydropyrazolo[1,5-a]pyrazin-4(5H)-one]	reversal of amphetamine-induced hyperlocomotion [1]: effective in reducing amphetamine-induced hyperlocomotion
65	380	O=C1c2cc(COc3ccccc3)nn2CCN1C[C@@H]1CC1(F)F [Compound 2, (S)-5-((2,2-difluorocyclopropyl)methyl)-2-(phenoxymethyl)-6,7-dihydropyrazolo[1,5-a]pyrazin-4(5H)-one]	–
72	871	C[C@@H]1Cn2nc(COc3ccccc3)cc2C(=O)N1CC1CC1(F)F (stereo partly shown) [Compound 4]	–
76	91.2	C[C@@H]1Cn2nc(COc3ccccc3)cc2C(=O)N1CC1CCC1 [Compound 6]	–
48	195	O=C1c2cc(COc3ccccc3)nn2CCN1C1CCCC1 [Compound 7]	–
30	> 10000	O=C1c2cc(COc3ccccc3)nn2CCN1C1COC1 [Compound 8]	–
29	324	O=C1c2cc(COc3ccccc3)nn2CCN1C1CCC1 [Compound 9]	–
72	646	O=C1c2cc(COc3ccccc3)nn2CCN1CC1CC(F)(F)C1 [Compound 10]	–
46	≥ 10000	O=C1c2cc(COc3ccccc3)nn2CCN1C1CCOCC1 [Compound 11]	–
58	145	O=C1c2cc(COc3ccccc3)nn2CCN1C1CCCCC1 [Compound 13, 5-cyclohexyl-2-(phenoxymethyl)-6,7-dihydropyrazolo[1,5-a]pyrazin-4(5H)-one]	–
51	158	O=C1c2cc(COc3cccc(F)c3)nn2CCN1C[C@H]1CC1(F)F [Compound 14, (R)-5-((2,2-difluorocyclopropyl)methyl)-2-((3-fluorophenoxy)methyl)-6,7-dihydropyrazolo[1,5-a]pyrazin-4(5H)-one]	–
71	97.7	CC1(C)CCC(N2CCn3nc(COc4ccccc4)cc3C2=O)CC1 [Compound 16]	–
77	58.9	O=C1c2cc(COc3ccccc3)nn2CCN1C1Cc2ccccc2C1 [Compound 17]	–
79	52.5	O=C1c2cc(COc3ccccc3)nn2CCN1CC1CCCCC1 [Compound 18]	–
65	110	O=C1c2cc(COc3cccc(F)c3)nn2CCN1C[C@@H]1CC1(F)F [Compound 21]	–
59	380	O=C1c2cc(COc3ccccc3)nn2CCCN1CC1CC1 [Compound 22, 5-(cyclopropylmethyl)-2-(phenoxymethyl)-5,6,7,8-tetrahydro-4H-pyrazolo[1,5-a][1,4]diazepin-4-one]	melting point: 126.4 °C
57	398	CC1CCn2nc(COc3ccccc3)cc2C(=O)N1CC1CC1 (stereo not shown) [Compound 23]	melting point: 68.6 °C
38	≥ 10000	CC1(C)CN(CC2CC2)C(=O)c2cc(COc3ccccc3)nn2C1 [Compound 24]	melting point: 96.5 °C
30	> 30200	CC1CN(CC2CC2)C(=O)c2cc(COc3ccccc3)nn2C1 (stereo not shown) [Compound 28]	melting point: 67.4 °C
71	1100	CC1(CN2CCn3nc(COc4ccccc4)cc3C2=O)COC1 [Compound 31]	–
–	–	O=C1c2cc(COc3ccccc3)nn2CCN1CC1CC(F)(F)C1 [Compound 32]	Emax (%) (human mGluR5; H10H cell-line, maximum % effect as percent of response to maximally effective glutamate, glutamate EC20 present): 73%; pEC50 (human mGluR5; [3]): 6.19
24	> 30200	O=C1c2cc(COc3ccccc3)nn2CCN1[C@H]1CCNC1 [Compound 34]	–
22	> 30200	O=C1c2cc(COc3ccccc3)nn2CCN1C1CCNCC1 [Compound 37]	–

Compound	Emax (human mGluR5; [2]) [%]	EC50 (human mGluR5; [3]) [nM]	also measured
O=C1c2cc(COc3ccccc3)nn2CCN1C[C@H]1CC1(F)F [Compound 1, (R)-5-((2,2-difluorocyclopropyl)methyl)-2-(phenoxymethyl)-6,7-dihydropyrazolo[1,5-a]pyrazin-4(5H)-one]	55	234	reversal of amphetamine-induced hyperlocomotion [1]: effective in reducing amphetamine-induced hyperlocomotion
O=C1c2cc(COc3ccccc3)nn2CCN1[C@H]1CCCNC1 [Compound 33]	–	> 30200	Emax (human mGluR5): 19%
